Literature values, collected in article PMC10401651, “Characterization of Uranyl (UO2^2+) Ion Binding to Amyloid Beta (Aβ) Peptides: Effects on Aβ Structure and Aggregation” (ACS Chemical Neuroscience, 2023).

Biological target: T1, Aβ42 oligomers (Homo sapiens, UniProt P05067)
T1 construct: Synthetic lyophilized wt Aβ (1–42) peptides, abbreviated as Aβ42; purchased JPT Peptide Technologies (Germany); host or cells: synthetic peptide
Parameters: method as in PMID 36849796
Conditions: 0.05% SDS; cited from earlier work

T1 sequence (P05067 672-713 limits assumed): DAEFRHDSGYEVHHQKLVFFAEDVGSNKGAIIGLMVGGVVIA

In the case of [Ni+2] [Ni(II) ions], the “concentration required for full disruption of homogeneous AβO0.05%SDS oligomers” value is given as 500 mM.
